The text below walks through data of publication PMC9262584 (2022).

Assay [1] has as its system Cd1^83 (RNA, riboswitch) GGAAACUAAAUAGGCAAAUCUAGAGAAAUCUAGUGACGCAAAGCUAUAGGGACUAAGGUUUAUAUACAUAAACUAUGUCAGCCAG
The assay can be described thus: ITC. The note with it: 120 mM NaCl, 8 mM MgCl2 (RNA wash buffer); 50 mM Bis-Tris pH 6.1; individual ITC conditions in SI Figures S11/S12.

Assay [2] relates to Cd1^86 (RNA, riboswitch) GGAAACUAAAUAGGCAAAUCUAGAGAAAUCUAGUGACGCAAAGCUAUAGGGACUAAGGUUUAUAUACAUAAACUAUGUCAGCCAGUUG
As to the kind of experiment: ITC. The note with it: 120 mM NaCl, 8 mM MgCl2 (RNA wash buffer); 50 mM Bis-Tris pH 6.1; individual ITC conditions in SI Figures S11/S12.

Assay [3] relates to Cd1^87 (RNA, riboswitch) GGAAACUAAAUAGGCAAAUCUAGAGAAAUCUAGUGACGCAAAGCUAUAGGGACUAAGGUUUAUAUACAUAAACUAUGUCAGCCAGUUGC
As to the kind of experiment: ITC. The settings on record: 120 mM NaCl, 8 mM MgCl2 (RNA wash buffer); 50 mM Bis-Tris pH 6.1; individual ITC conditions in SI Figures S11/S12.

Assay [4] relates to Cd1^88 (RNA, riboswitch) GGAAACUAAAUAGGCAAAUCUAGAGAAAUCUAGUGACGCAAAGCUAUAGGGACUAAGGUUUAUAUACAUAAACUAUGUCAGCCAGUUGCC
As to the kind of experiment: ITC. The note with it: 120 mM NaCl, 8 mM MgCl2 (RNA wash buffer); 50 mM Bis-Tris pH 6.1; individual ITC conditions in SI Figures S11/S12.

Assay [5] has as its system Cd1^135 (RNA, riboswitch) GGAAACUAAAUAGGCAAAUCUAGAGAAAUCUAGUGACGCAAAGCUAUAGGGACUAAGGUUUAUAUACAUAAACUAUGUCAGCCAGUUGCCAAAAAGAGUCCUAGGUGUAUUGUAUACCUAAGAAAAGUCUAUAAUGA
The assay can be described thus: ITC. The settings on record: 120 mM NaCl, 8 mM MgCl2 (RNA wash buffer); 50 mM Bis-Tris pH 6.1; individual ITC conditions in SI Figures S11/S12.

In assay [6] the test system is Cd1^146 (RNA, riboswitch) GGAAACUAAAUAGGCAAAUCUAGAGAAAUCUAGUGACGCAAAGCUAUAGGGACUAAGGUUUAUAUACAUAAACUAUGUCAGCCAGUUGCCAAAAAGAGUCCUAGGUGUAUUGUAUACCUAAGAAAAGUCUAUAAUGACUGCCUUUUUG
As to the kind of experiment: ITC. The note with it: 120 mM NaCl, 8 mM MgCl2 (RNA wash buffer); 50 mM Bis-Tris pH 6.1; individual ITC conditions in SI Figures S11/S12.

The test system of assay [7] is Cd1^88 C81A (RNA, riboswitch) GGAAACUAAAUAGGCAAAUCUAGAGAAAUCUAGUGACGCAAAGCUAUAGGGACUAAGGUUUAUAUACAUAAACUAUGUCAGCAAGUUGCC
As to the kind of experiment: 1H NMR reporter peaks. The settings on record: 110 mM NaCl, MgCl2 at 40 equiv. over RNA; 50 mM Bis-Tris, 5-10% D2O.

Assay [8] concerns Cd1^88 A24-26U (RNA, riboswitch) GGAAACUAAAUAGGCAAAUCUAGAGUUUUCUAGUGACGCAAAGCUAUAGGGACUAAGGUUUAUAUACAUAAACUAUGUCAGCCAGUUGCC
The assay can be described thus: 1H NMR reporter peaks. The settings on record: 110 mM NaCl, MgCl2 at 40 equiv. over RNA; 50 mM Bis-Tris, 5-10% D2O.

Assay [9] concerns Cd1^80 (RNA, riboswitch) GGAAACUAAAUAGGCAAAUCUAGAGAAAUCUAGUGACGCAAAGCUAUAGGGACUAAGGUUUAUAUACAUAAACUAUGUCAGC
The assay can be described thus: 1H NMR reporter peaks. The note with it: 110 mM NaCl, MgCl2 at 40 equiv. over RNA; 50 mM Bis-Tris, 5-10% D2O.

In assay [10] the test system is Cd1^81 (RNA, riboswitch) GGAAACUAAAUAGGCAAAUCUAGAGAAAUCUAGUGACGCAAAGCUAUAGGGACUAAGGUUUAUAUACAUAAACUAUGUCAGCC
As to the kind of experiment: 1H NMR reporter peaks. The settings on record: 110 mM NaCl, MgCl2 at 40 equiv. over RNA; 50 mM Bis-Tris, 5-10% D2O.

Assay [11] concerns Cd1^82 (RNA, riboswitch) GGAAACUAAAUAGGCAAAUCUAGAGAAAUCUAGUGACGCAAAGCUAUAGGGACUAAGGUUUAUAUACAUAAACUAUGUCAGCCA
The assay can be described thus: 1H NMR reporter peaks. The note with it: 110 mM NaCl, MgCl2 at 40 equiv. over RNA; 50 mM Bis-Tris, 5-10% D2O.

Assay [12] deals with Cd1^88 C87A (RNA, riboswitch) GGAAACUAAAUAGGCAAAUCUAGAGAAAUCUAGUGACGCAAAGCUAUAGGGACUAAGGUUUAUAUACAUAAACUAUGUCAGCCAGUUGAC
As to the kind of experiment: 1H NMR reporter peaks. The settings on record: 110 mM NaCl, MgCl2 at 40 equiv. over RNA; 50 mM Bis-Tris, 5-10% D2O.

Assay [13] concerns Cd1^88 C88A (RNA, riboswitch) GGAAACUAAAUAGGCAAAUCUAGAGAAAUCUAGUGACGCAAAGCUAUAGGGACUAAGGUUUAUAUACAUAAACUAUGUCAGCCAGUUGCA
As to the kind of experiment: 1H NMR reporter peaks. The note with it: 110 mM NaCl, MgCl2 at 40 equiv. over RNA; 50 mM Bis-Tris, 5-10% D2O.

Assay [14] has as its system Cd1^88 G11A (RNA, riboswitch) GGAAACUAAAUAAGCAAAUCUAGAGAAAUCUAGUGACGCAAAGCUAUAGGGACUAAGGUUUAUAUACAUAAACUAUGUCAGCCAGUUGCC
The assay can be described thus: 1H NMR reporter peaks. The settings on record: 110 mM NaCl, MgCl2 at 40 equiv. over RNA; 50 mM Bis-Tris, 5-10% D2O.

The subject of assay [15] is Cd1^88 G11C (RNA, riboswitch) GGAAACUAAAUACGCAAAUCUAGAGAAAUCUAGUGACGCAAAGCUAUAGGGACUAAGGUUUAUAUACAUAAACUAUGUCAGCCAGUUGCC
The assay can be described thus: 1H NMR reporter peaks. The note with it: 110 mM NaCl, MgCl2 at 40 equiv. over RNA; 50 mM Bis-Tris, 5-10% D2O.

Assay [16] concerns Cd1^148 (RNA, riboswitch) GGAAACUAAAUAGGCAAAUCUAGAGAAAUCUAGUGACGCAAAGCUAUAGGGACUAAGGUUUAUAUACAUAAACUAUGUCAGCCAGUUGCCAAAAAGAGUCCUAGGUGUAUUGUAUACCUAAGAAAAGUCUAUAAUGACUGCCUUUUUGGC
As to the kind of experiment: 2D 1H/15N correlation NMR. The settings on record: 110 mM NaCl, MgCl2 at 40 equiv. over RNA; 50 mM Bis-Tris, 5-10% D2O.

Assay [17] deals with Cd1^149 (RNA, riboswitch) GGAAACUAAAUAGGCAAAUCUAGAGAAAUCUAGUGACGCAAAGCUAUAGGGACUAAGGUUUAUAUACAUAAACUAUGUCAGCCAGUUGCCAAAAAGAGUCCUAGGUGUAUUGUAUACCUAAGAAAAGUCUAUAAUGACUGCCUUUUUGGCA
The assay can be described thus: 2D 1H/15N correlation NMR. The note with it: 110 mM NaCl, MgCl2 at 40 equiv. over RNA; 50 mM Bis-Tris, 5-10% D2O.

Assay [18] has as its system Cd1^147 (RNA, riboswitch) GGAAACUAAAUAGGCAAAUCUAGAGAAAUCUAGUGACGCAAAGCUAUAGGGACUAAGGUUUAUAUACAUAAACUAUGUCAGCCAGUUGCCAAAAAGAGUCCUAGGUGUAUUGUAUACCUAAGAAAAGUCUAUAAUGACUGCCUUUUUGG
As to the kind of experiment: 2D 1H/15N correlation NMR. The note with it: 110 mM NaCl, MgCl2 at 40 equiv. over RNA; 50 mM Bis-Tris, 5-10% D2O.

On to `Nc1nc2c(ncn2[C@@H]2O[C@@H]3COP(=O)(O)O[C@H]4[C@@H](O)[C@H](n5cnc6c(=O)[nH]c(N)nc65)O[C@@H]4COP(=O)(O)O[C@H]3[C@H]2O)c(=O)[nH]1`, for which the KD (usually the constant that tells how readily two partners part at equilibrium) is > >100 μM in [1]; 35000 ± 10000 nM in [2]; 1900 ± 100 nM in [3]; 250 ± 40 nM in [4]; 600 ± 30 nM in [5]; 7000 ± 2000 nM in [6]. Also, the binding entry is recorded as “no” in assay [7]; “no” in assay [8]; “no” in [9]; “no” in assay [10]; “no” in [11]; “weak” in assay [12]. For the same molecule, the binding entry is “yes” in [13]; “yes” in [14]; “yes” in [15]; “no” in assay [16]; “no” in assay [17]; “yes” in [18].
